Data published in ChEMBL document CHEMBL1156375, “Isolation and structure determination of novamethymycin, a new bioactive metabolite of the methymycin biosynthetic pathway in Streptomyces venezuelae” (2001).

tested on: Bacillus subtilis; assay: Antibacterial activity against Bacillus subtilis ATCC 6633 at 100 ug/disk after 10 hrs by disk diffusion assay; type: functional; conditions: ATCC 6633, 10 h, read-out: DIZ

`CC[C@H]1OC(=O)[C@H](C)[C@@H](O[C@@H]2O[C@H](C)C[C@H](N(C)C)[C@H]2O)[C@@H](C)C[C@@H](C)C(=O)/C=C/[C@]1(C)O` [METHYMYCIN] and `C[C@@H]1C[C@H](N(C)C)[C@@H](O)[C@H](O[C@H]2[C@@H](C)C[C@@H](C)C(=O)/C=C/[C@](C)(O)[C@@H]([C@@H](C)O)OC(=O)[C@@H]2C)O1` [NOVAMETHYMYCIN] are the same in zone of inhibition at 100 µg/disc: 18 mm for the first, 18 mm for the second.

First: C[C@@H]1C[C@H](N(C)C)[C@@H](O)[C@H](O[C@H]2[C@@H](C)C[C@@H](C)C(=O)/C=C/[C@@H](C)[C@@H]([C@@H](C)O)OC(=O)[C@@H]2C)O1 [NEOMETHYMYCIN]
Second: CC[C@H]1OC(=O)[C@H](C)[C@@H](O[C@@H]2O[C@H](C)C[C@H](N(C)C)[C@H]2O)[C@@H](C)C[C@@H](C)C(=O)/C=C/[C@H]1C
The zone of inhibition at 100 µg/disc of the first is higher: 20 mm for the first, 16 mm for the second.
